# Molecular target: human recombinant ATX (Homo sapiens (Human), UniProt Q13822)
# Assay: Autotaxin (ATX) activity Quanta Red assay
# Type: biochemical
# Conditions: 15 μM Rac-1-Palmitoyl-glycero-3-phosphocholine, 2 hours room temperature, determined in duplicate
# Protocol: The ATX enzyme assay (Quanta Red assay) described in accompanying Example section may be used to measure the pharmacological effects of the compounds of the present invention.
# Autotaxin (ATX) Activity Quanta Red Assay
# Measuring ATX activity using an enzyme coupled Quanta Red assay (Thermo Scientific—Pierce Protein Research Products, Product #15159) was determined as follows. 8 μL human recombinant ATX (final concentration 0.8 μg/mL) in 1× Assay buffer containing 50 mM Tris-HCl (pH 8.0), 5 mM CaCl2 was added to an opaque black flat-bottom 384-well plate (Corning, #3575) containing 2 μL test compound in 40% DMSO (4% final DMSO concentration). 10 μL of Quanta Red, Horseradish peroxidase (HRP), Choline Oxidase (CO), Rac-1-Palmitoyl-glycero-3-phosphocholine solution (final concentration 1:250 for Quanta Red, 0.5units/ml HRP, 0.5units/ml CO, 15 μM Rac-1-Palmitoyl-glycero-3-phosphocholine) in 1× assay buffer (as described previously) was added to each well to start the reaction and the plate was incubated at room temperature for 2 hours. The reaction was stopped after 2 hours with a 20 μL addition of Quanta Red Stop solution (1:20 dilution in distilled water). The above-described mixture with DMSO alone was used as a positive control whereas that with DMSO alone without ATX was taken as a negative control.
# For each test compound, ten concentrations were measured covering a range of 6.1 nM to 120 μM to determine IC50 values. The top concentration was decreased to 1.2 μM when a test compound's IC50 value was evaluated in low nanomolar range. Fluorescence was determined in a BMG Labtech Pherastar plus plate reader ([…]). Data were analysed using Excel fit software. IC50 values were determined in duplicate.
row,Compound,IC50 [nM]
1,"CN(Cc1ccc(N2CC(C(=O)Nc3nnc(CCc4ccc(Cl)cc4)s3)CC2=O)cc1)C1CCOCC1 (stereo not drawn) [Compound F111, N-[5-[2-(4-chlorophenyl)ethyl]-1,3,4-thiadiazol-2-yl]-1-[4-[[methyl(tetrahydropyran-4-yl)amino]methyl]phenyl]-5-oxo-pyrrolidine-3-carboxamide]",3
2,"CCN(Cc1ccc(N2CC(C(=O)Nc3nnc(CCc4ccc(Cl)cc4)s3)CC2=O)cc1)CC(C)C (stereo not drawn) [Compound F112, N-[5-[2-(4-chlorophenyl)ethyl]-1,3,4-thiadiazol-2-yl]-1-[4-[[ethyl(isobutyl)amino]methyl]phenyl]-5-oxo-pyrrolidine-3-carboxamide]",3
3,"O=C(Nc1nnc(CCC2CCCC2)s1)C1CC(=O)N(c2ccc(CN3CCC(F)CC3)cc2)C1 (stereo not drawn) [Compound F113, N-[5-(2-cyclopentylethyl)-1,3,4-thiadiazol-2-yl]-1-[4-[(4-fluoro-1-piperidyl)methyl]phenyl]-5-oxo-pyrrolidine-3-carboxamide]",3
4,"O=C(Nc1nnc(CCc2ccc(Cl)cc2)s1)C1CC(=O)N(c2ccc(CN3CCCCCC3)cc2)C1 (stereo not drawn) [Compound F114, 1-[4-(azepan-1-ylmethyl)phenyl]-N-[5-[2-(4-chlorophenyl)ethyl]-1,3,4-thiadiazol-2-yl]-5-oxo-pyrrolidine-3-carboxamide]",3
5,"O=C(Nc1nnc(CCC2CCCC2)s1)C1CC(=O)N(c2ccc(CN3CCCC(F)(F)C3)cc2)C1 (stereo not drawn) [Compound F115, N-[5-(2-cyclopentylethyl)-1,3,4-thiadiazol-2-yl]-1-[4-[(3,3-difluoro-1-piperidyl)methyl]phenyl]-5-oxo-pyrrolidine-3-carboxamide]",3
6,"CCCN(CCC)Cc1ccc(N2CC(C(=O)Nc3nnc(CCc4ccc(Cl)cc4)s3)CC2=O)cc1 (stereo not drawn) [Compound F116, N-[5-[2-(4-chlorophenyl)ethyl]-1,3,4-thiadiazol-2-yl]-1-[4-[(dipropyl-amino)methyl]phenyl]-5-oxo-pyrrolidine-3-carboxamide]",3
7,"CN1CCN(Cc2ccc(N3CC(C(=O)Nc4nnc(CCc5ccc(Cl)cc5)s4)CC3=O)cc2)CC1 (stereo not drawn) [Compound F117, N-[5-[2-(4-chlorophenyl)ethyl]-1,3,4-thiadiazol-2-yl]-1-[4-[(4-methylpiperazin-1-yl)methyl]phenyl]-5-oxo-pyrrolidine-3-carboxamide]",4
8,"O=C(Nc1ncc(CCc2ccccc2)s1)C1CC(=O)N(c2ccc(CN3CCOCC3)cc2)C1 (stereo not drawn) [Compound F118, 1-[4-(morpholinomethyl)phenyl]-5-oxo-N-[5-(2-phenylethyl)thiazol-2-yl]pyrrolidine-3-carboxamide]",4
9,"C[C@@H]1CN(Cc2ccc(N3CC(C(=O)Nc4nnc(CCc5ccc(Cl)cc5)s4)CC3=O)cc2)C[C@H](C)O1 (stereo partly drawn) [Compound F119, N-[5-[2-(4-chlorophenyl)ethyl]-1,3,4-thiadiazol-2-yl]-1-[4-[[(2S,6R)-2,6-dimethylmorpholin-4-yl]methyl]phenyl]-5-oxo-pyrrolidine-3-carboxamide]",4
10,"O=C(Nc1nnc(CCc2ccc(Cl)cc2)s1)C1CC(=O)N(c2ccc(CN3CCOCC3)cc2)C1 (stereo not drawn) [Compound F121, N-[5-[2-(4-chlorophenyl)ethyl]-1,3,4-thiadiazol-2-yl]-1-[4-(morpholinomethyl)phenyl]-5-oxo-pyrrolidine-3-carboxamide]",4
11,"O=C(Nc1nnc(CCC2CCCC2)s1)C1CC(=O)N(c2ccc(CN3CCCOCC3)cc2)C1 (stereo not drawn) [Compound F122, N-[5-(2-cyclopentylethyl)-1,3,4-thiadiazol-2-yl]-1-[4-(1,4-oxazepan-4-ylmethyl)phenyl]-5-oxo-pyrrolidine-3-carboxamide]",4
12,"O=C(Nc1nnc(CCC2CCCC2)s1)C1CC(=O)N(c2ccc(CN3CCC(F)(F)CC3)cc2)C1 (stereo not drawn) [Compound F123, N-[5-(2-cyclopentylethyl)-1,3,4-thiadiazol-2-yl]-1-[4-[(4,4-difluoro-1-piperidyl)methyl]phenyl]-5-oxo-pyrrolidine-3-carboxamide]",5
